The subject of data set [1] is CRC organoids engrafted in swine small intestine tissue. Kind of data set: ex vivo CRC organoid-in-intestine platform, GFP+ tumor cells by flow cytometry. Type of data set: cell-based. The note with it: for IC50: System: Tissue (pig ex vivo colorectal cancer platform), 24 hours drug treatment.
The test system of data set [2] is CRC organoids (APC−/TP53−/SMAD4− triple knockout). Kind of data set: CellTiter-Glo cytotoxicity assay on CRISPR-engineered CRC organoids. The note with it: read-out: IC50 (uM) ± SD.
Another data set deals with HT29 cells. Kind of data set: CellTiter-Glo Luminescent cell viability assay. Type of data set: cell-based. The note with it: Homo sapiens, HT-29; System: Cell (HT29).
The test system of the next data set is HCT15 cells. The experiment in a line: CellTiter-Glo Luminescent cell viability assay. Type of data set: cell-based. The note with it: System: Cell (HCT15).
The test system of another data set is Colo320DM cells. The experiment in a line: CellTiter-Glo Luminescent cell viability assay. It counts as cell-based. As to conditions: System: Cell (Colo320DM).
For a further data set, the system named is Caco2 cells. Kind of data set: CellTiter-Glo Luminescent cell viability assay. It counts as cell-based. The note with it: Homo sapiens, Caco-2; System: Cell (Caco2).
The target in another data set is P-gp (Homo sapiens, UniProt P08183). As to conditions: previous work; cited from earlier work.

Read-outs that look alike come from different tables or passages of the source.

Chain of P-gp (P08183 whole entry): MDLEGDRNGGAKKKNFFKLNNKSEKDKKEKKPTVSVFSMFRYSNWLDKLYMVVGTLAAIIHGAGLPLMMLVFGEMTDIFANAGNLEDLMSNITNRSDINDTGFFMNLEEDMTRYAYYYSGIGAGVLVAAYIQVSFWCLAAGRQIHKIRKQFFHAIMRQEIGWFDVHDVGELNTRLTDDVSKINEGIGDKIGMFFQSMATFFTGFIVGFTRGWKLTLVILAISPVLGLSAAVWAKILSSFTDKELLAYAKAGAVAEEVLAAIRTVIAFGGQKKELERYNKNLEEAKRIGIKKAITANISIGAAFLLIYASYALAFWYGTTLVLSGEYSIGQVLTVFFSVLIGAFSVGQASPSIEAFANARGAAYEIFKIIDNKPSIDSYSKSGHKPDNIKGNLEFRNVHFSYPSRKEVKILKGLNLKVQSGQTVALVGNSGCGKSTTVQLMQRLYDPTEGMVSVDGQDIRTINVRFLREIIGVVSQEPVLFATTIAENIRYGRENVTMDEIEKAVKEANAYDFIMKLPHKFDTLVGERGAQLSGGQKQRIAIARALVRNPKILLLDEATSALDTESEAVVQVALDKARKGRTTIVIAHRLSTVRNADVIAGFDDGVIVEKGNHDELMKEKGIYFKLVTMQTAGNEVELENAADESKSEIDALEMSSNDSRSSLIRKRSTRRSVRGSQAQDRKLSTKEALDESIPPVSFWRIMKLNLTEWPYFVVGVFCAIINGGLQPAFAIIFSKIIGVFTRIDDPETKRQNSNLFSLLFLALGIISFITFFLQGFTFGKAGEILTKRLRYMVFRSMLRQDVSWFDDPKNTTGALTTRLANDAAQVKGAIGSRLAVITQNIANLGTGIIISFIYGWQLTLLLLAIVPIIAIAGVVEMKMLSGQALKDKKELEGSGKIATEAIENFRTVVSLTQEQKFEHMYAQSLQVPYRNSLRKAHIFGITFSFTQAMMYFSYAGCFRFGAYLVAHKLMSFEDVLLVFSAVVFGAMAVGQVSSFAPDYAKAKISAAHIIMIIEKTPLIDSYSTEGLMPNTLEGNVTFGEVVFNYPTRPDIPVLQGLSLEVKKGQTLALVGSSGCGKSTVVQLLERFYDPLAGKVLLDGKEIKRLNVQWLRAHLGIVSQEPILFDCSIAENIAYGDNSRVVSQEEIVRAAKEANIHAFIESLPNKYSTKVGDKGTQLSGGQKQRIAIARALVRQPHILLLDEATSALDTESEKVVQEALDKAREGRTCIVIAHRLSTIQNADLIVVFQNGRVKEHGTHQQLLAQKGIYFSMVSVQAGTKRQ

As for `COc1cccc2c1C(=O)c1c(O)c3c(c(O)c1C2=O)C[C@@](O)(C(=O)CO)C[C@@H]3O[C@H]1C[C@H](N)[C@H](O)[C@H](C)O1` [Doxirubicine, doxorubicin], the concentration for half-maximal inhibition (IC50) in data set [1] (Sus scrofa) is 0.739 ± 0.082 µM; in data set [2] (Sus scrofa) it was 10.1 ± 2.33 µM; with HT29 cells, 3.88 ± 2.13 µM; in the data set on HCT15 cells (Homo sapiens, HCT-15) it was 1.51 ± 0.226 µM; with Colo320DM cells (Homo sapiens, COLO 320DM), 6.99 ± 1.23 µM; with Caco2 cells it was 2.85 ± 0.712 µM.

Turning to `CS(=O)(=O)CCNCc1ccc(-c2ccc3ncnc(Nc4ccc(OCc5cccc(F)c5)c(Cl)c4)c3c2)o1` [Lapatinib, lapatinib], the IC50 in data set [1] (Sus scrofa) was determined as 0.499 ± 0.087 µM; in data set [2] (Sus scrofa), 0.39 ± 0.21 µM.

As to `O=C1[O][Pt]2([NH][C@@H]3CCCC[C@H]3[NH]2)[O]C1=O` [Oxiliplatin, oxaliplatin], the IC50 in data set [1] came out at 8.61 ± 3.38 µM; in data set [2] (System: Organoid (without transplantation into tissue)) it was 18 ± 4.72 µM; with HCT15 cells, 15.5 ± 4.99 µM; in the data set with Colo320DM cells, 10.5 ± 1.71 µM.

Turning to vitamin A, the “potency of irinotecan in combination with predicted P-gp modulator” value in data set [1] (ex vivo CRC platform, FIGS. 8B-8C, one-way ANOVA p<0.05) is on record as “significantly increased the potency irinotecan”. Also, the “P-gp inhibition and drug uptake” value at P-gp is “inhibit P-gp and increase drug uptake”.

The values above are taken from patent publication US20230101335A1, “EX VIVO TISSUE EXPLANT AND GRAFT PLATFORM AND USES THEREOF” (Massachusetts Institute of Technology, priority 2021, published 2023).
